Results: ChEMBL document CHEMBL1140744, “Binding of serotonin and N1-benzenesulfonyltryptamine-related analogs at human 5-HT6 serotonin receptors: receptor modeling studies” (J Med Chem, 2008)

biological target: 5-hydroxytryptamine receptor 6 (Homo sapiens, UniProt P50406); experiment: Displacement of [3H]LSD from human 5HT6 receptor expressed in HEK293 cells; assay type: cell-based
Sequence (P50406 whole entry): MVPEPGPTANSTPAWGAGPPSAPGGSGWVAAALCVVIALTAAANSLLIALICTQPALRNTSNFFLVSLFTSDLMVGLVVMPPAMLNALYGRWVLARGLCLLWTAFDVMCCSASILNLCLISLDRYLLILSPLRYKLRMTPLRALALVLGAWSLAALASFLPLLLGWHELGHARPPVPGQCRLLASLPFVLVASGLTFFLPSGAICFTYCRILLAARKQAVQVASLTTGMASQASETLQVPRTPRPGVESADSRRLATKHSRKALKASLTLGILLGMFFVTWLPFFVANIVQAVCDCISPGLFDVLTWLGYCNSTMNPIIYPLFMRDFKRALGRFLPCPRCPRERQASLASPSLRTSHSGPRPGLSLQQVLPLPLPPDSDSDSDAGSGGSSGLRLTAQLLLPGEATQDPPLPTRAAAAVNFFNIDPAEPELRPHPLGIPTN

| Structure (SMILES) | Ki [µM] |
| --- | --- |
| CCc1[nH]c2ccc(OC)cc2c1C[C@H]1CCCN1C | 0.0018 |
| CN(C)[C@H]1CCc2c(cccc2NS(=O)(=O)c2ccccc2)C1 | 0.09 |
| CN(C)CCc1cn(Sc2ccccc2)c2ccccc12 | 0.09 |
| CN(C)[C@@H]1CCc2c(cccc2NS(=O)(=O)c2ccccc2)C1 | 0.049 |
| CCc1[nH]c2ccc(OC)cc2c1C[C@@H]1CCCN1C | 0.22 |
